Data as given in patent publication US10364226B2, “Pyridazinone compounds and uses thereof” (priority 2013, dated 2019).

Experiments:
[1] = test system: Influenza strain A549 A/WSN/33 (H1N1); assay: Influenza Antiviral Assay; assay type: cell-based, Influenza A virus; settings: Influenza A virus, A549, 20 h, neuraminidase fluorescence readout, read-out: % Inhibition
[2] = biological target: EN PA (Influenza A virus, UniProt P15659); assay: EN PA FRET Inhibition Assay; assay type: biochemical; settings: read-out: Potency

SMILES | EC50 [1] | IC50 [2]
CCOC(=O)c1nn(CC2(c3ccccc3)CCCC2)cc(O)c1=O [Compound 411] | < 20000 nM | 100 to 1000 nM
CNC(=O)c1nn(CC2(n3cc(C)c4cccnc43)CCCC2)cc(OC(=O)OCC(C)C)c1=O [Compound 764] | < 20000 nM | < 100 nM
O=C(NCC1CC1)c1nn(CC2(c3cccc(C(F)(F)F)c3)CCCC2)cc(O)c1=O [Compound 510] | < 20000 nM | 100 to 1000 nM
CNC(=O)c1nn(CC2(n3cc(C)c4cccnc43)CCCC2)cc(OCc2ccccc2)c1=O [Compound 852] | > 100000 nM | ≥ 1000 nM
CNC(=O)c1nn(CCc2ccccc2OC)cc(O)c1=O [Compound 604] | > 100000 nM | ≥ 1000 nM
CNC(=O)c1nn(CC2(n3ccc4cc(F)ccc43)CCCC2)cc(O)c1=O [Compound 816] | < 20000 nM | < 100 nM
CNC(=O)c1nn(CC2(n3ccc4ccccc43)CCCC2)cc(O)c1=O [Compound 850] | < 20000 nM | < 100 nM
CNC(=O)c1nn(CC(C)(C)c2ccc(C)cc2)cc(O)c1=O [Compound 607] | < 20000 nM | 100 to 1000 nM
CC(C)(C)NC(=O)c1nn(CC2(n3cc(Cl)c4cccnc43)CCCC2)cc(O)c1=O [Compound 766] | < 20000 nM | < 100 nM
CNC(=O)c1nn(CC2(c3cc4ccccc4cc3Cl)CCCC2)cc(O)c1=O [Compound 893] | < 20000 nM | < 100 nM
CC1(C)CC(Cn2cc(O)c(=O)c(C(=O)O)n2)(c2ccccc2)C1 [Compound 785] | > 100000 nM | < 100 nM
CNC(=O)c1nn(CC2(n3cc(C(F)(F)F)c4cccnc43)CCCC2)cc(OC(=O)C(C)(C)C)c1=O [Compound 695] | < 20000 nM | < 100 nM
CCOC(=O)[C@H]1[C@@H]2CC(Cn3cc(O)c(=O)c(C(=O)NC)n3)(n3cc(C)c4cccnc43)C[C@@H]21 (stereo partly shown) [Compound 874] | > 100000 nM | 100 to 1000 nM
CNC(=O)c1nn(CC2(c3ccccc3)CCC(C)(C)C2)cc(O)c1=O (stereo not shown) [Compound 776] | < 20000 nM | < 100 nM
CNC(=O)c1nn(CCC2c3ccccc3CCc3ccccc32)cc(O)c1=O [Compound 839] | > 100000 nM | 100 to 1000 nM
O=C(NCc1ccccc1)c1nn(CC2(c3ccncc3)CCCC2)cc(O)c1=O [Compound 825] | < 20000 nM | 100 to 1000 nM
O=C(NCC1CC1)c1nn(CC2(n3cc(Cl)c4cccnc43)CCCC2)cc(O)c1=O [Compound 760] | < 20000 nM | < 100 nM
O=C(NCc1ccc(Cl)c(Cl)c1)c1nn(CC2(c3cccc(C(F)(F)F)c3)CCCC2)cc(O)c1=O [Compound 513] | < 20000 nM | 100 to 1000 nM
CNC(=O)c1nn(CC2(c3cc(C)c4ncccc4c3)CCCC2)cc(O)c1=O [Compound 846] | < 20000 nM | < 100 nM
NC(=O)c1nn(CC2(c3cccc(-c4ccccc4)c3)CCCC2)cc(O)c1=O [Compound 722] | > 100000 nM | < 100 nM
CNC(=O)c1nn(CC2(n3cnc4cncnc43)CCCC2)cc(O)c1=O [Compound 855] | > 100000 nM | 100 to 1000 nM
O=C(O)c1nn(CC2(c3cccc(C(F)(F)F)c3)CC2)cc(O)c1=O [Compound 424] | 20000 to 100000 nM | 100 to 1000 nM
CNC(=O)c1nn(CC2(n3cc(C)c4cccnc43)CCCC2)cc(OC(=O)OC(C)C)c1=O [Compound 793] | < 20000 nM | 100 to 1000 nM

SMILES | EC50 [1] | IC50 [2]
CNC(=O)c1nn(CC2(n3ccc4cc(C)cnc43)CCCC2)cc(O)c1=O [Compound 872] | < 20000 nM | < 100 nM
O=C(O)c1nn(-c2ccccc2N2CCCCC2)cc(O)c1=O [Compound 11] | > 100000 nM | 100 to 1000 nM
O=C(NC1CC1)c1nn(CC2(n3cc(C(F)(F)F)c4cccnc43)CCCC2)cc(O)c1=O [Compound 682] | < 20000 nM | < 100 nM
CC1(C)CCC(Cn2cc(O)c(=O)c(C(=O)NCc3ccc(F)c(Cl)c3)n2)(c2ccccc2)C1 (stereo not shown) [Compound 797] | < 20000 nM | 100 to 1000 nM
O=C(NCc1ccccc1)c1nn(-c2ccccc2S(=O)(=O)c2ccccc2)cc(O)c1=O [Compound 605] | 20000 to 100000 nM | 100 to 1000 nM
CCc1ccc(C2(Cn3cc(O)c(=O)c(C(=O)NC)n3)CCCC2)cc1 [Compound 747] | < 20000 nM | < 100 nM
CC(C)(CO)NC(=O)c1nn(CC2(n3ccc4cccnc43)CCCC2)cc(O)c1=O [Compound 867] | < 20000 nM | < 100 nM
CNC(=O)c1nn(CC2(c3cccc(C(F)(F)F)c3)CC2)cc(O)c1=O [Compound 621] | < 20000 nM | 100 to 1000 nM
CNC(=O)c1nn(CCc2cccc3ccccc23)cc(O)c1=O [Compound 614] | 20000 to 100000 nM | 100 to 1000 nM
CNC(=O)c1nn(CC2(c3ccc(C(F)(F)F)cc3)CCCC2)cc(O)c1=O [Compound 685] | < 20000 nM | < 100 nM
CC(C)(C)NC(=O)c1nn(CC2(n3ccc4cc(F)ccc43)CCCC2)cc(O)c1=O [Compound 819] | < 20000 nM | < 100 nM
CNC(=O)c1nn(-c2ccccc2-c2cc(OC)ccc2Cl)cc(O)c1=O [Compound 612] | 20000 to 100000 nM | ≥ 1000 nM
NC(=O)c1nn(CC2(c3ccccc3)CCCC2)cc(O)c1=O [Compound 708] | < 20000 nM | < 100 nM
C[C@@H](NC(=O)c1nn(CC2(n3cc(Cl)c4cccnc43)CCCC2)cc(O)c1=O)C(F)(F)F [Compound 771] | < 20000 nM | 100 to 1000 nM
CNC(=O)c1nn(CC2(n3cc(-c4ccccc4)c4cccnc43)CCCC2)cc(O)c1=O [Compound 671] | < 20000 nM | 100 to 1000 nM
CNC(=O)c1nn(CC2(c3ccc4ccccc4n3)CCCC2)cc(O)c1=O [Compound 843] | < 20000 nM | < 100 nM
O=C(NCc1ccccc1)c1nn(CC2(c3ccc(F)c(F)c3)CCCC2)cc(O)c1=O [Compound 812] | < 20000 nM | < 100 nM
CNC(=O)c1nn(CC2(n3cc(C)c4cc(Cl)cnc43)CCCC2)cc(O)c1=O [Compound 851] | < 20000 nM | < 100 nM
Cc1cn(C2(Cn3cc(O)c(=O)c(C(=O)NCCNC(=O)OC(C)(C)C)n3)CCCC2)c2ncccc12 [Compound 876] | < 20000 nM | < 100 nM
O=C(NCc1cncnc1)c1nn(CC2(c3ccccc3)CCCC2)cc(O)c1=O [Compound 693] | < 20000 nM | < 100 nM
O=C1NCCCCCOc2ccc(cc2)C2(CCCC2)Cn2cc(O)c(=O)c1n2 [Compound 873] | > 100000 nM | 100 to 1000 nM
CNC(=O)c1nn(CCN2c3ccccc3CCc3ccccc32)cc(O)c1=O [Compound 840] | > 100000 nM | 100 to 1000 nM
Cc1cn(C2(Cn3cc(O)c(=O)c(C(=O)NCCN)n3)CCCC2)c2ncccc12 [Compound 865] | < 20000 nM | < 100 nM

SMILES | EC50 [1] | IC50 [2]
NC(=O)c1nn(CC2(c3cccc(C(F)(F)F)c3)CCCC2)cc(O)c1=O [Compound 602] | < 20000 nM | 100 to 1000 nM
CNC(=O)c1nn(CC2(c3cc(Cl)cc(C(F)(F)F)c3)CCCC2)cc(O)c1=O [Compound 768] | < 20000 nM | < 100 nM
CNC(=O)c1nn(CC2(n3cc(Br)c4cccnc43)CCCC2)cc(O)c1=O [Compound 680] | < 20000 nM | < 100 nM
CNC(=O)c1nn(CC2(n3c4c(c5ccccc53)CCC4)CCCC2)cc(O)c1=O [Compound 891] | < 20000 nM | < 100 nM
CNC(=O)c1nn(CC2(n3ccc4cccc(C)c43)CCCC2)cc(O)c1=O [Compound 808] | < 20000 nM | < 100 nM
CNC(=O)c1nn(CCC2CCCCC2)cc(O)c1=O [Compound 606] | 20000 to 100000 nM | ≥ 1000 nM
CNC(=O)c1nn(CC2(n3ccc4c(F)cccc43)CCCC2)cc(O)c1=O [Compound 859] | < 20000 nM | < 100 nM
CNC(=O)c1nn(CC2(n3cc(Cl)c4cccnc43)CCCC2)cc(O)c1=O [Compound 743] | < 20000 nM | < 100 nM
CNC(=O)c1nn(CC2(c3cc(C)c4cccnc4c3)CCCC2)cc(O)c1=O [Compound 888] | < 20000 nM | < 100 nM
O=C(NCc1ccc(F)c(Cl)c1)c1nn(CC2(c3cccc(Cl)c3)CCCC2)cc(O)c1=O [Compound 750] | < 20000 nM | < 100 nM
O=C1NCCCCCc2ccc3ccn(c3c2)C2(CCCC2)Cn2cc(O)c(=O)c1n2 [Compound 826] | < 20000 nM | < 100 nM
CNC(=O)c1nn(CC2(c3cccc(Cl)c3)CCCC2)cc(O)c1=O [Compound 700] | < 20000 nM | < 100 nM
CNC(=O)c1nn(CC2(n3cc(C)c4cccnc43)CCC2)cc(O)c1=O [Compound 814] | < 20000 nM | < 100 nM
CNC(=O)c1nn(CC2(c3c[nH]c4ccccc34)CCCC2)cc(O)c1=O [Compound 831] | > 100000 nM | 100 to 1000 nM
CC1(C)CCC(Cn2cc(O)c(=O)c(C(=O)O)n2)(c2ccccc2)C1 (stereo not shown) [Compound 786] | > 100000 nM | < 100 nM
CNC(=O)c1nn(CC2(n3cc(C)c4cccnc43)CCCCC2)cc(OC(=O)OC(C)(C)C)c1=O [Compound 806] | < 20000 nM | < 100 nM
CNC(=O)c1nn(CC2(n3cc(C)c4ccccc43)CCCC2)cc(O)c1=O [Compound 740] | < 20000 nM | < 100 nM
CNC(=O)c1nn(CC2(n3cc(C)c4cccnc43)CCCC2)cc(OC(=O)OCC(C)(C)C)c1=O [Compound 801] | < 20000 nM | < 100 nM
CNC(=O)c1nn(CC(C)(C)c2cccc(C(F)(F)F)c2)cc(O)c1=O [Compound 645] | < 20000 nM | < 100 nM
CNC(=O)c1nn(CC2(c3cc(F)c4ncccc4c3)CCCC2)cc(O)c1=O [Compound 847] | > 100000 nM | < 100 nM
CC(C)c1cccc(C2(Cn3cc(O)c(=O)c(C(=O)O)n3)CCCC2)c1 [Compound 723] | 20000 to 100000 nM | < 100 nM
O=C(NC1CCCC1)c1nn(CC2(c3cccc(C(F)(F)F)c3)CCCC2)cc(O)c1=O [Compound 514] | < 20000 nM | 100 to 1000 nM
